Assay: Light obscuration particulate testing (HIAC-3000, based on USP 788), at time zero and 24 hours
Format: physicochemical
Conditions: in Zosyn solutions, summary of Table 1
Procedure: Samples are prepared according to the compositions described in Table I. […] The fluid in the bag is mixed with gentle inversions for about 30 seconds. • The bags are labeled with identity and reconstitution time. • When added, aminoglycosides are added immediately. The fluid in the bag is mixed with gentle inversions for about 30 seconds. • A 50 ml sample is drawn with a 60 cc syringe fitted with a 21-gauge needle. • A clean, particle free vial is rinsed with water for injection, and then filled with about 45 ml of the sample. HIAC testing is performed immediately. • Into a suitably sized sample vial, a 3 ml sample is prepared for HPLC testing. HPLC testing is begun within an hour of sample preparation (Table 1). The remainder of the Zosyn® admixture samples (about 50 ml) are stored in a closed cabinet in the laboratory, at ambient temperature and tested again 24 hours later (Table 1). Light obscuration testing is performed using a HIAC-3000. A testing method, based on USP 788 is followed for the analysis. (See TABLE I) The data is reported on a particle per ml basis. […] The same sample was resampled and analyzed 24 hours after the first test. A summary of the HIAC data is provided as Table I.

O=C(O)CN(CCN(CC(=O)O)CC(=O)O)CC(=O)O [EDTA, ethylene diamine tetraacetic acid]
effect of added EDTA (edetate disodium dihydrate) on number of particles generated: significantly reduces the number of particles generated in 24 hours

NCC[C@H](O)C(=O)N[C@@H]1C[C@H](N)[C@@H](O[C@H]2O[C@H](CN)[C@@H](O)[C@H](O)[C@H]2O)[C@H](O)[C@H]1O[C@H]1O[C@H](CO)[C@@H](O)[C@H](N)[C@H]1O [amikacin]
effect of added aminoglycoside on number of particles generated: increases the number of particles generated in 24 hours

— US6900184B2, “Compositions containing pipercillin and tazobactam useful for injection” (Wyeth Holdings Corporation, priority 2003, dated 2005)
